The values that follow are results of earlier work, collected in patent publication US20210395200A1, “SYNTHETIC PROCESSES FOR THE PRODUCTION OF 1-((3S,4R)-4-(2,6-DIFLUORO-4-METHOXYPHENYL)-2-OXOPYRROLIDIN-3-YL)-3-PHENYLUREA” (BRISTOL-MYERS SQUIBB COMPANY, priority 2018, published 2021).

The data set addresses T1, FPR2 (Homo sapiens, UniProt P25090).
T1 sequence (P25090 1-351): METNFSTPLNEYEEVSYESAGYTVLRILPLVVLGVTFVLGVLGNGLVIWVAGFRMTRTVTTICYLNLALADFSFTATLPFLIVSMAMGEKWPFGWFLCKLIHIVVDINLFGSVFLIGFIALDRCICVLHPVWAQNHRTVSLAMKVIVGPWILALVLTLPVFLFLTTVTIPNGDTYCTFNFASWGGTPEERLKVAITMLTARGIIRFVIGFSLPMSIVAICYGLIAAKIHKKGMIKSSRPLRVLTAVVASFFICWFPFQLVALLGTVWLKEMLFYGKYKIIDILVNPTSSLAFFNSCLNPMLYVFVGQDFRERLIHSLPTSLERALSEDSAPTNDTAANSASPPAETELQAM
The note with it: background statement referring to U.S. Pat. No. 9,822,069.

The structures appear in SMILES notation.

In the case of `COc1cc(F)c([C@@H]2CNC(=O)[C@H]2NC(=O)Nc2ccccc2)c(F)c1` [Compound 1, 1-((3S,4R)-4-(2,6-difluoro-4-methoxyphenyl)-2-oxopyrrolidin-3-yl)-3-phenylurea], the FPR2 agonist activity result is “robust FPR2 agonist activity”.
